In assay [1] the target is T1, D3R (Homo sapiens, UniProt P35462). As to the kind of experiment: IPOne accumulation, D3R-mediated G protein activation, HEK293T cells with D3R and Gqprom. Also on record: host or cells: HEK293T, transient. It counts as cell-based. The conditions noted are these: compared to the reference agonist quinpirole. The protocol:
Supplementary Figure 7 . Activation of D3R in transiently transfected HEK293T cells. D3R-mediated activation of G proteins was measured by stimulation of HEK293T cells transiently transfected with D3R and a promiscuous Gq protein (Gqprom). Subsequent f ormation of IP3 as second messenger of the Gq signaling pathway was determined employing the IPOne assay (CisBio). […]
TransIT293 in a DNA to reagent ratio of 1 : 3. After 24h, cells were detached using Versene […]
Germany) and additionally cultivated f or 24 h at 37°C, 5% CO 2. After replacement of the medium with 10 µL stimulation buffer (CisBio, Codolet, France), 5 µL of the test compounds dissolved in stimulation buffer were added. After 90 min at 37°C, 5 µL of IP1 reagent mix and 5 µ L of AB r eag ent mix in lysis buff er (CisBio) were added, f ollowed by a 60 min incubation at room temperature under light exclusion. The FRET ratio was determined using a CLARIOstar microplate reader with a f ilter […]
A sigmoid curve was fitted using the algorithms for three-parameter non-linear regression provided by GraphPad Pr ism 6.0 and the data were normalized to […]

Assay [2] deals with T1, D3R. As to the kind of experiment: Radioligand competition/saturation binding with [3H]spiperone, membranes of HEK293T cells monoexpressing D3R. The conditions noted are these: read-out: % Specific binding [³H]Spiperone, D3R; for remaining activity at 0.001 µM: log concentration -9.00; for remaining activity at 0.0001 µM: log concentration -10.00; for remaining activity at 1 pM: log concentration -12.00.
Procedure: (§1) Affinities of the bivalent ligands were determined by radio-ligand displacement in analogy to previously described protocols[76]. […] Competition binding experiments were carried out using a protein concentration of 4–18 µg protein per well for the coexpression systems and 1–12 µg per well for the monoexpression system in a total volume of 200 µL. […] All binding experiments were carried out at 37 °C in binding buffer consisting of 50 mM Tris pH 7.4, 5 nM MgCl2, 1 mM EDTA, 100 µg ∙ mL^−1 bacitracin and 100 µg ∙ mL^−1 soybean trypsin inhibitor. Data were normalised to non-specific and total binding and analysed employing one- or two-site competition binding algorithms implemented in GraphPad Prism for windows, version 6.0 (GraphPad Software, San Diego California, USA, www.graphpad.com).

Assay [3] concerns the target T1, D3R. As to the kind of experiment: Surface ELISA, monoexpressed Flag-D3R. It counts as cell-based. Also on record: host or cells: HEK293T, transient. The conditions noted are these: 1 µM quinpirole, 1 µM NT(8-13) or 10 nM 1d, 30 min.
Procedure: β-arrestin 2 recruitment (bystander BRET)6
HEK293SL cells were diluted to a density of 350 ,000 cells ∙ mL-1 and transiently transfected using
to a total DNA amount of 1 µg . 35,000 cells were plated in a 96-well plate coated with poly L- ornithine
and cultivated f or 48 h at 37°C, 5% CO2. On the day of the experiment, the cell medium was aspirated
and each well was washed once with PBS and serum starved f or 30-45 min. A Deep Blue C dilution
ligand dilution in Tyrode’s buffer was added. After additional stimulation for 5 min at 37°C, 5% CO2,
BRET2 was determined using a Mithras LB940 multimode microplate reader with 400- 70 nm (donor)
Obtained BRETratios were normalized to vehicle
non- linear regression employing the models implemented in GraphPad Prism 6.
In a further assay the target is T2, D3R-Rluc (Homo sapiens, UniProt P35462).
T2 construct: 24-aa linker […]; expressed in transfected cells; host or cells: HEK293SL or Δβ-arrestin-HEK, transient
T2 sequence (P35462 whole entry): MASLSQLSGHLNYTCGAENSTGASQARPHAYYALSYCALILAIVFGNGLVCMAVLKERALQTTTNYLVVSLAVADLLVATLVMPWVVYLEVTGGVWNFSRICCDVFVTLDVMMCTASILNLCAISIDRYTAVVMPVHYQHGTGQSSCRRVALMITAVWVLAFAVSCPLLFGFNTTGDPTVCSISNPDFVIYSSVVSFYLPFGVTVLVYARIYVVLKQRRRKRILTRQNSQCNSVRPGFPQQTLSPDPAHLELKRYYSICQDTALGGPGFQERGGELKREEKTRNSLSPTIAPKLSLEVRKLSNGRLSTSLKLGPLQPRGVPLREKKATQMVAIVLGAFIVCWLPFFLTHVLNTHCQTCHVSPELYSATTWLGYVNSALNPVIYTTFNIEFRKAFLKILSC
Put plainly: Bystander BRET internalisation (rGFP-CAAX / rGFP-FYVE), monoexpressed D3R-Rluc. It counts as cell-based. The conditions noted are these: 1 µM quinpirole or 10 nM bivalent ligand.

The target of assay [4] is T1, D3R. Put plainly: biochemical.
Procedure: as §1

SMILES strings stand for the structures. “Also recorded” adds a separate entry of the source.

T1 sequence (P35462 whole entry): as above
Procedure for D3R-Rluc: HEK293SL cells[71] or Δβ-arrestin-HEK[49] were detached with Trypsin/EDTA (Wisent Inc., St-Bruno, QC, Canada) and 350,000 cells were transiently transfected in suspension using polyethyleneimine. 5 ng of NTSR1-Rluc or 400 ng of D3R-Rluc8 were either mono-or cotransfected with 600 ng of untagged D3R or 5 ng NTSR1, respectively, along with 300 ng rGFP-CAAX or 300 ng rGFP-FYVE and ssDNA to a total of 1 µg DNA. Cells were seeded in white poly-L-ornithine (Sigma Aldrich) coated 96-well plates (Greiner Bio one) at a density of 35,000 cells per well. 48 hours after transfection, cells were washed once with PBS and serum starved for 30–45 min in Tyrode’s Buffer at 37 °C, 5% CO2. Coelenterazine-h was added in a final concentration of 3 µM and cells were further incubated at 37 °C, 5% CO2. After 3 min, ligands were added and cells were stimulated for 30 min, 37 °C, 5% CO2 before determining the BRETratio using a Mithras LB940 multimode microplate reader with 480-20 nm (donor) and 530-20 nm (acceptor) filters. […] Ligand-induced effects were monitored by calculation of ΔBRET, which was determined as the difference in BRETratio between the ligand-treated conditions and vehicle-treated controls. Data were analysed by three-parameter sigmoid or bell-shaped nonlinear regression using the algorithms provided by GraphPad Prism 6.0.

Take `CCCN(CCCCc1cn(-c2ccc(-c3ccc(C(=O)NCCOCCOCCOCCOCCOCCOCCC(=O)N[C@@H](CCCNC(=N)N)C(=O)N[C@@H](CCCNC(=N)N)C(=O)N4CCC[C@H]4C(=O)N[C@@H](Cc4ccc(O)cc4)C(=O)N[C@H](C(=O)N[C@@H](CC(C)C)C(=O)O)[C@@H](C)CC)cc3)cc2)nn1)C1Cc2ccccc2C1` [1a]: at D3R [1], the “D3R-mediated activation of G proteins” value is “full D3R agonists”. On D3R [2], the remaining activity at 0.001 µM amounted to 48.9%, the remaining activity at 0.0001 µM was determined as 74.5% and the remaining activity at 1 pM came out at 88.8%.

`CCCN(CCCCc1cn(-c2ccc(-c3ccc(C(=O)NCCOCCOCCOCCOCCOCCOCCC(=O)NCCOCCOCCOCCOCCOCCOCCC(=O)NCCOCCOCCOCCOCCOCCOCCC(=O)NCCOCCOCCOCCOCCOCCOCCC(=O)N[C@@H](CCCNC(=N)N)C(=O)N[C@@H](CCCNC(=N)N)C(=O)N4CCC[C@H]4C(=O)N[C@@H](Cc4ccc(O)cc4)C(=O)N[C@H](C(=O)N[C@@H](CC(C)C)C(=O)O)[C@@H](C)CC)cc3)cc2)nn1)C1Cc2ccccc2C1` [1d]: the “surface expression of monoexpressed D3R” value on D3R [3] is “unchanged; also recorded: did not lead to apparent changes in surface expression”. Also, on D3R [1], the “D3R-mediated activation of G proteins” value is “full D3R agonists”. The “internalisation of monoexpressed D3R-Rluc” value at D3R-Rluc is “could not detect internalisation”. The remaining activity at 0.302 µM on D3R [2] (log concentration -6.52) was -0.137%. Further, the remaining activity at 0.0302 µM at D3R [2] (log concentration -7.52) was found to be 12.6%. Also, the remaining activity at 0.00302 µM on D3R [2] (log concentration -8.52) was 46.4%. Also, the remaining activity at 0.000302 µM on D3R [2] (log concentration -9.52) was determined as 92.1%. On D3R [2], the remaining activity at 0.0001 µM stood at 92.1% and the remaining activity at 1 pM was 103%. In addition, the remaining activity at 30.2 pM on D3R [2] (log concentration -10.52) amounted to 96.8%.

For the compound `CC[C@H](C)[C@H](NC(=O)[C@H](Cc1ccc(O)cc1)NC(=O)[C@@H]1CCCN1C(=O)[C@H](CCCNC(=N)N)NC(=O)[C@H](CCCNC(=N)N)NC(=O)CCOCCOCCOCCOCCOCCOCCNC(=O)c1ccc(-c2ccc(-n3cc(CCCCN4CCN(c5ccccc5OC)CC4)nn3)cc2)cc1)C(=O)N[C@@H](CC(C)C)C(=O)O` [2a], the “D3R-mediated activation of G proteins” value at D3R [1] is reported as “weak partial agonist or antagonist-like behavior”. At D3R [2] (log concentration -8.00), the remaining activity at 0.01 µM was 44.3%. At D3R [2], the remaining activity at 0.001 µM was determined as 75%, the remaining activity at 0.0001 µM worked out at 90% and the remaining activity at 1 pM stood at 102%. At D3R [2] (log concentration -11.00), the remaining activity at 10 pM worked out at 92%. The same compound gave a Ki on D3R [4] of 4.4 nM.

On to `CC[C@H](C)[C@H](NC(=O)[C@H](Cc1ccc(O)cc1)NC(=O)[C@@H]1CCCN1C(=O)[C@H](CCCNC(=N)N)NC(=O)[C@H](CCCNC(=N)N)NC(=O)CCOCCOCCOCCOCCOCCOCCNC(=O)CCOCCOCCOCCOCCOCCOCCNC(=O)CCOCCOCCOCCOCCOCCOCCNC(=O)CCOCCOCCOCCOCCOCCOCCNC(=O)c1ccc(-c2ccc(-n3cc(CCCCN4CCN(c5ccccc5OC)CC4)nn3)cc2)cc1)C(=O)N[C@@H](CC(C)C)C(=O)O` [2d], for which the “D3R-mediated activation of G proteins” value on D3R [1] is listed as “weak partial agonist or antagonist-like behavior”. Besides, the “internalisation of monoexpressed D3R-Rluc” value on D3R-Rluc is recorded as “could not detect internalisation”. The remaining activity at 1 pM on D3R [2] worked out at 94.4%.

The values above are taken from publication PMC8433439, “Bivalent ligands promote endosomal trafficking of the dopamine D3 receptor-neurotensin receptor 1 heterodimer” (Communications Biology, 2021).
